Experimental findings from PubChem BioAssay (NCI) are described below.

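Interpolation was linear, between the two tested concentrations surrounding the appropriate level; five concentrations were tested over 48 hours in 96-well plates. GI50 marks 50% less growth. TGI marks complete inhibition of growth.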

Some test systems named below: SNB-75 CNS; A498 renal; RXF 393 renal; SK-OV-3 ovarian; SF-268 CNS; OVCAR-4 ovarian; DU-145 prostate; NCI-H226 lung; HCT-116 colon; SR leukemia.
What all share (assay): NCI-60 cell line screen, 48 h

For the compound `Cn1cc(-c2csc(-c3cn(CCCCN4CCCCC4)c4ccccc34)n2)c2cccnc21`, the GI50 with SNB-75 CNS is 1.51 µM; in the assay on A498 renal it was 1610 nM; in the assay on RXF 393 renal, 1480 nM; in the assay with SK-OV-3 ovarian it was 1.77 µM; in the assay with SF-268 CNS, 1710 nM; in the assay on OVCAR-4 ovarian, 1960 nM. The GI50 in the assay on DU-145 prostate was 1.75 µM. Further, the TGI in the assay on SNB-75 CNS was 2.99 µM; with A498 renal, 3 µM; in the assay with RXF 393 renal, 2.99 µM; with SK-OV-3 ovarian it was 3.21 µM; in the assay on SF-268 CNS it was 3.37 µM; in the assay on OVCAR-4 ovarian it was 4.04 µM. In addition, the TGI in the assay with DU-145 prostate came to 3.2 µM.

Consider `CCC/C=C/C=C/C1CC(O)C(O)C(=O)C1CO` (stereo not drawn), for which the TGI in the assay with NCI-H226 lung, with HCT-116 colon, in the assay on SNB-75 CNS, in the assay with RXF 393 renal, with SK-OV-3 ovarian and with SF-268 CNS was greater than 100 µM throughout. The TGI with OVCAR-4 ovarian and in the assay on DU-145 prostate was greater than 100 µM throughout.

Take `c1coc(-c2c3ccc(=[N+]4CCCCC4)cc-3oc3cc(N4CCCCC4)ccc23)c1`: the GI50 in the assay with NCI-H226 lung was 138 nM; in the assay with SNB-75 CNS, 0.0903 µM; in the assay with A498 renal, 78.4 nM; in the assay on RXF 393 renal it was 43.7 nM; in the assay on SK-OV-3 ovarian it was 0.246 µM; in the assay on SF-268 CNS, 66.7 nM. In addition, the GI50 with OVCAR-4 ovarian is 70.7 nM; in the assay on DU-145 prostate, 0.088 µM. For the same compound, the TGI worked out at 1.87 µM with NCI-H226 lung; 0.588 µM in the assay on SNB-75 CNS; 0.568 µM in the assay on A498 renal; 0.228 µM with RXF 393 renal; 0.819 µM with SK-OV-3 ovarian; 0.472 µM in the assay on SF-268 CNS. Besides, the TGI in the assay with OVCAR-4 ovarian was found to be 0.883 µM; in the assay with DU-145 prostate, 0.475 µM.

In the case of `COc1ccc(C(=O)c2cc(OC)c(OC)c(OC)c2)cc1OC`, the TGI is greater than 100 µM in the assay on HCT-116 colon; greater than 100 µM in the assay on SNB-75 CNS; 6.3 µM in the assay on RXF 393 renal; greater than 100 µM in the assay on SR leukemia; greater than 100 µM with SF-268 CNS; greater than 100 µM with DU-145 prostate.

On to `CCCc1cc(=O)n2c(C(=O)Nc3ccc(Cl)cc3C)c(C(=O)Nc3ccc(F)cc3)sc2n1`, for which the GI50 in the assay on HCT-116 colon is 2530 nM; in the assay with SNB-75 CNS, 3.71 µM; in the assay on A498 renal it was 29200 nM; with RXF 393 renal it was 1170 nM; in the assay on SR leukemia, 943 nM; in the assay with SK-OV-3 ovarian, 12.7 µM. Also, the GI50 with SF-268 CNS was 6620 nM; in the assay with OVCAR-4 ovarian, 2570 nM; with DU-145 prostate it was 9.37 µM. Besides, the TGI was greater than 150 µM in the assay with HCT-116 colon; 11.5 µM in the assay with SNB-75 CNS; 99.8 µM with A498 renal; 4.46 µM with RXF 393 renal; 3.75 µM with SR leukemia; 52.8 µM in the assay with SK-OV-3 ovarian. Further, the TGI in the assay on SF-268 CNS worked out at 24.9 µM; in the assay on OVCAR-4 ovarian it was 6.25 µM; with DU-145 prostate, 33.3 µM.

Consider `CC1(C)CN=C(NN=C(/C=C/c2ccc(C(F)(F)F)cc2)/C=C/c2ccc(C(F)(F)F)cc2)NC1`, for which the GI50 is 1510 nM in the assay on NCI-H226 lung; 1320 nM in the assay with HCT-116 colon; 1.56 µM in the assay on SNB-75 CNS; 1420 nM with A498 renal; 1330 nM with RXF 393 renal; 1.77 µM in the assay on SK-OV-3 ovarian. For the same compound, the GI50 in the assay on SF-268 CNS is 1510 nM; in the assay on OVCAR-4 ovarian it was 1290 nM; with DU-145 prostate it was 1.04 µM. The TGI in the assay on NCI-H226 lung worked out at 3.27 µM; in the assay on HCT-116 colon, 2.75 µM; in the assay with SNB-75 CNS it was 2.95 µM; in the assay with A498 renal, 2.78 µM; with RXF 393 renal it was 2.73 µM; in the assay on SK-OV-3 ovarian it was 3.16 µM. Also, the TGI was 3.12 µM with SF-268 CNS, 2.72 µM with OVCAR-4 ovarian and 2.22 µM in the assay with DU-145 prostate.

On to `COc1ccc(C(CC(=O)c2ccc3c(c2)OCO3)c2c(O)c3ccccc3oc2=O)cc1OC` (stereo not drawn), for which the TGI in the assay on NCI-H226 lung, in the assay with HCT-116 colon, in the assay with SNB-75 CNS, in the assay on A498 renal, in the assay on RXF 393 renal and with SK-OV-3 ovarian was greater than 100 µM throughout. Also, the TGI in the assay with SF-268 CNS, in the assay with OVCAR-4 ovarian and with DU-145 prostate was greater than 100 µM in each case.

As to `O=C(/C(=C\c1c(-c2ccccc2)[nH]c2ccccc12)S(=O)(=O)c1ccccc1)c1ccccc1`, the GI50 with NCI-H226 lung is greater than 100000 nM; with HCT-116 colon, 4890 nM; in the assay with SNB-75 CNS it was 10.1 µM; in the assay on RXF 393 renal it was 97100 nM; with SR leukemia, 9910 nM; with SK-OV-3 ovarian it was 7.63 µM. Also, the GI50 with SF-268 CNS is greater than 100000 nM; in the assay on OVCAR-4 ovarian it was 6580 nM; in the assay on DU-145 prostate, greater than 100 µM. Further, the TGI in the assay on NCI-H226 lung, in the assay on HCT-116 colon, in the assay with SNB-75 CNS, with RXF 393 renal, in the assay on SR leukemia and with SK-OV-3 ovarian was greater than 100 µM throughout. Besides, the TGI in the assay with SF-268 CNS, in the assay with OVCAR-4 ovarian and in the assay with DU-145 prostate was greater than 100 µM in each case.

With `Nc1c(-c2ccccc2-c2c(N)[n+]([O-])c3ccccc3[n+]2[O-])[n+]([O-])c2ccccc2[n+]1[O-]`, the TGI with NCI-H226 lung was greater than 100 µM; in the assay with HCT-116 colon, 74.6 µM; in the assay on SNB-75 CNS it was greater than 100 µM; in the assay on A498 renal, 71.4 µM; in the assay with RXF 393 renal it was greater than 100 µM; in the assay with SR leukemia, 37.3 µM. Also, the TGI in the assay with SK-OV-3 ovarian, with SF-268 CNS and in the assay with OVCAR-4 ovarian was greater than 100 µM each time.

In the case of `O=C(O)c1cccc(COc2ccc([N+](=O)[O-])cc2Cl)c1`, the GI50 is greater than 100000 nM with HCT-116 colon; greater than 100 µM in the assay with SNB-75 CNS; greater than 100 µM in the assay on SK-OV-3 ovarian; 7710 nM in the assay on SF-268 CNS; greater than 100000 nM in the assay with OVCAR-4 ovarian; greater than 100 µM with DU-145 prostate. The TGI in the assay with HCT-116 colon is greater than 100 µM; with SNB-75 CNS, greater than 100 µM; in the assay with SK-OV-3 ovarian, greater than 100 µM; with SF-268 CNS, 85.6 µM; with OVCAR-4 ovarian, greater than 100 µM; with DU-145 prostate, greater than 100 µM.

`CCCC(=O)C1=C(O)C(Cc2c(O)c(C)c(O)c(C(=O)CCC)c2O)=C(O)C(C)(C)C1=O`: the TGI with HCT-116 colon is greater than 50 µM; with SNB-75 CNS, greater than 50 µM; with A498 renal it was greater than 50 µM; in the assay with RXF 393 renal, greater than 50 µM; in the assay with SR leukemia it was 40.3 µM; with SK-OV-3 ovarian, greater than 50 µM. Also, the TGI in the assay on SF-268 CNS, with OVCAR-4 ovarian and in the assay with DU-145 prostate was greater than 50 µM in each case.

For `COC(=O)c1cc2c(o1)-c1nccc3c1c(nc1ccccc13)C2=O`, the GI50 with NCI-H226 lung was 8080 nM; in the assay on HCT-116 colon it was 1920 nM; with A498 renal it was 18000 nM; in the assay on SR leukemia, 519 nM; in the assay on SK-OV-3 ovarian, 10.7 µM; in the assay on SF-268 CNS it was 2820 nM. In addition, the GI50 with DU-145 prostate is 4.26 µM. Besides, the TGI is 25.4 µM with NCI-H226 lung; 5.95 µM in the assay on HCT-116 colon; 39.1 µM with A498 renal; 2.51 µM with SR leukemia; 39.8 µM in the assay with SK-OV-3 ovarian; 24.2 µM with SF-268 CNS. Further, the TGI with DU-145 prostate stood at 22.9 µM.

On to `Nc1ccccc1C(=O)/C=C/c1c(O)ccc2ccccc12`, for which the TGI in the assay on NCI-H226 lung, in the assay with HCT-116 colon, in the assay with SNB-75 CNS, in the assay with A498 renal, with RXF 393 renal and in the assay with SR leukemia was greater than 100 µM throughout. In addition, the TGI in the assay with SK-OV-3 ovarian, in the assay with SF-268 CNS and with OVCAR-4 ovarian was greater than 100 µM throughout.

Turning to `CCC(C)(O)c1cnc(CC(C)C)c(=O)n1O` (stereo not drawn), the TGI with HCT-116 colon is greater than 100 µM; with SNB-75 CNS it was greater than 100 µM; with A498 renal it was greater than 100 µM; with RXF 393 renal it was greater than 100 µM; with SR leukemia, 62.6 µM; in the assay with SK-OV-3 ovarian, greater than 100 µM. Further, the TGI in the assay with SF-268 CNS, in the assay on OVCAR-4 ovarian and with DU-145 prostate was greater than 100 µM in each case.

Turning to `CC1=C(C#N)C(=O)CC(c2ccc(Cl)cc2)N(C)N1` (stereo not drawn), the TGI with NCI-H226 lung, with HCT-116 colon, with SNB-75 CNS, in the assay with A498 renal, with RXF 393 renal and in the assay with SR leukemia was greater than 100 µM each time. Also, the TGI in the assay on SK-OV-3 ovarian, with SF-268 CNS and with OVCAR-4 ovarian was greater than 100 µM throughout.

Turning to `CCCC/C(=C\C1=C(C)C(=O)C(OC)=C(OC)C1=O)C(=O)O`, the GI50 in the assay with HCT-116 colon was greater than 100000 nM; in the assay with SNB-75 CNS it was 25.2 µM; with A498 renal it was greater than 100000 nM; in the assay on RXF 393 renal it was greater than 100000 nM; in the assay with SK-OV-3 ovarian, greater than 100 µM; with SF-268 CNS, greater than 100000 nM. In addition, the GI50 was 31600 nM in the assay with OVCAR-4 ovarian and greater than 100 µM in the assay with DU-145 prostate. Besides, the TGI with HCT-116 colon, with SNB-75 CNS, in the assay with A498 renal, in the assay with RXF 393 renal, in the assay on SK-OV-3 ovarian and in the assay with SF-268 CNS was greater than 100 µM throughout. Besides, the TGI in the assay with OVCAR-4 ovarian and in the assay on DU-145 prostate was greater than 100 µM in each case.

As for `CCN1c2ccccc2-c2c3c1cc(C)cc3c1ccccc1[n+]2CC`, the TGI with NCI-H226 lung was found to be 3.69 µM; with HCT-116 colon it was 3.89 µM; with SNB-75 CNS it was 2.2 µM; in the assay on A498 renal it was 13.9 µM; in the assay with RXF 393 renal it was 9.51 µM; in the assay with SR leukemia, 5.21 µM. Moreover, the TGI was determined as 5.68 µM in the assay with SK-OV-3 ovarian, 2.04 µM with SF-268 CNS and 5.57 µM in the assay on OVCAR-4 ovarian.
